Laboratory results reported in PubChem BioAssay (NCI).
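Cultured in 96-well plates, cells were exposed to test compound for 48 hours across five concentrations. GI50 is the concentration that inhibits growth by half. TGI: total growth inhibition.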

Legend:
Test in all cases: DTP human tumour cell line panel, 48 h; in the data active means GI50 below about 0.43 µM; inactive means the rest
RPMI-8226 leukemia = system: RPMI-8226 leukemia
HT29 colon = system: HT29 colon
T-47D breast = system: T-47D breast
DU-145 prostate = system: DU-145 prostate
SF-268 CNS = system: SF-268 CNS
HL-60(TB) leukemia = system: HL-60(TB) leukemia
RXF 393 renal = system: RXF 393 renal
NCI-H522 lung = system: NCI-H522 lung
SNB-75 CNS = system: SNB-75 CNS
HCT-15 colon = system: HCT-15 colon
IGROV1 ovarian = system: IGROV1 ovarian
HS 578T breast = system: HS 578T breast
MOLT-4 leukemia = system: MOLT-4 leukemia
SF-295 CNS = system: SF-295 CNS
BT-549 breast = system: BT-549 breast
NCI-H23 lung = system: NCI-H23 lung
HOP-92 NSCLC = system: HOP-92 NSCLC
OVCAR-8 ovarian = system: OVCAR-8 ovarian
OVCAR-3 ovarian = system: OVCAR-3 ovarian
UACC-257 melanoma = system: UACC-257 melanoma
SF-539 CNS = system: SF-539 CNS
CCRF-CEM leukemia = system: CCRF-CEM leukemia
A549 NSCLC = system: A549 NSCLC
UO-31 renal = system: UO-31 renal
LOX IMVI melanoma = system: LOX IMVI melanoma
786-0 renal = system: 786-0 renal
COLO 205 colon = system: COLO 205 colon
MDA-MB-231 breast = system: MDA-MB-231 breast
SK-MEL-5 melanoma = system: SK-MEL-5 melanoma
MDA-MB-435 = system: MDA-MB-435
SK-OV-3 ovarian = system: SK-OV-3 ovarian
ACHN renal = system: ACHN renal
UACC-62 melanoma = system: UACC-62 melanoma
K-562 leukemia = system: K-562 leukemia
HCC-2998 colon = system: HCC-2998 colon
SR leukemia = system: SR leukemia
MCF7 breast = system: MCF7 breast
MALME-3M melanoma = system: MALME-3M melanoma
NCI-H226 lung = system: NCI-H226 lung
KM12 colon = system: KM12 colon
SN12C renal = system: SN12C renal
TK-10 renal = system: TK-10 renal
SW-620 colon = system: SW-620 colon
OVCAR-4 ovarian = system: OVCAR-4 ovarian
A498 renal = system: A498 renal
HCT-116 colon = system: HCT-116 colon
NCI/ADR-RES ovarian = system: NCI/ADR-RES ovarian
U251 CNS = system: U251 CNS
M14 melanoma = system: M14 melanoma
SK-MEL-28 melanoma = system: SK-MEL-28 melanoma
OVCAR-5 ovarian = system: OVCAR-5 ovarian
NCI-H460 lung = system: NCI-H460 lung
CAKI-1 renal = system: CAKI-1 renal
HOP-62 NSCLC = system: HOP-62 NSCLC
PC-3 prostate = system: PC-3 prostate
SNB-19 CNS = system: SNB-19 CNS
SK-MEL-2 melanoma = system: SK-MEL-2 melanoma

N#Cc1ncc(-c2ccc(C(F)(F)F)cc2)c(NCc2cc(C(F)(F)F)cc(C(F)(F)F)c2)n1
59.8 µM: TGI (HS 578T breast)
15 µM: TGI (SK-MEL-5 melanoma)
5.87 µM: TGI (RPMI-8226 leukemia)
8.48 µM: TGI (PC-3 prostate)
9.92 µM: TGI (UACC-257 melanoma)
65.8 µM: TGI (NCI/ADR-RES ovarian)
53.5 µM: TGI (U251 CNS)
4.57 µM: TGI (COLO 205 colon)
49.8 µM: TGI (CCRF-CEM leukemia)
13.8 µM: TGI (SR leukemia)
> 100 µM: TGI (HT29 colon) | TGI (T-47D breast) | TGI (DU-145 prostate) | TGI (SF-268 CNS) | TGI (HCT-15 colon) | TGI (IGROV1 ovarian) | TGI (BT-549 breast) | TGI (OVCAR-8 ovarian) | TGI (SF-539 CNS) | TGI (MDA-MB-435) | TGI (ACHN renal) | TGI (UACC-62 melanoma) | TGI (K-562 leukemia) | TGI (HCC-2998 colon) | TGI (MCF7 breast) | TGI (NCI-H226 lung) | TGI (SN12C renal) | TGI (SW-620 colon) | TGI (OVCAR-4 ovarian) | TGI (HCT-116 colon) | TGI (M14 melanoma) | TGI (SK-MEL-28 melanoma) | TGI (OVCAR-5 ovarian)
29.1 µM: TGI (SF-295 CNS)
22.7 µM: TGI (OVCAR-3 ovarian)
inactive: GI50 (RPMI-8226 leukemia) 2.29 µM | GI50 (HT29 colon) 3.27 µM | GI50 (T-47D breast) 3.35 µM | GI50 (DU-145 prostate) 5.19 µM | GI50 (SF-268 CNS) 8.17 µM | GI50 (HL-60(TB) leukemia) 2.36 µM | GI50 (RXF 393 renal) 3.37 µM | GI50 (NCI-H522 lung) 2.92 µM | GI50 (SNB-75 CNS) 3.19 µM | GI50 (HCT-15 colon) 3.52 µM | GI50 (IGROV1 ovarian) 5.95 µM | GI50 (HS 578T breast) 3.08 µM | GI50 (MOLT-4 leukemia) 3.17 µM | GI50 (SF-295 CNS) 2.78 µM | GI50 (BT-549 breast) 5.88 µM | GI50 (NCI-H23 lung) 3.22 µM | GI50 (HOP-92 NSCLC) 2.14 µM | GI50 (OVCAR-8 ovarian) 3.69 µM | GI50 (OVCAR-3 ovarian) 3.8 µM | GI50 (UACC-257 melanoma) 3.06 µM | GI50 (SF-539 CNS) 8.5 µM | GI50 (CCRF-CEM leukemia) 2.26 µM | GI50 (A549 NSCLC) 3.11 µM | GI50 (UO-31 renal) 2.89 µM | GI50 (LOX IMVI melanoma) 3.02 µM | GI50 (786-0 renal) 6.39 µM | GI50 (COLO 205 colon) 2.24 µM | GI50 (MDA-MB-231 breast) 3.17 µM | GI50 (SK-MEL-5 melanoma) 3.91 µM | GI50 (MDA-MB-435) 3.42 µM | GI50 (SK-OV-3 ovarian) 5.23 µM | GI50 (ACHN renal) 3.62 µM | GI50 (UACC-62 melanoma) 3.93 µM | GI50 (K-562 leukemia) 3.74 µM | GI50 (HCC-2998 colon) 4.17 µM | GI50 (SR leukemia) 2.97 µM | GI50 (MCF7 breast) 2.74 µM | GI50 (MALME-3M melanoma) 2.98 µM | GI50 (NCI-H226 lung) 4.85 µM | GI50 (KM12 colon) 3.17 µM | GI50 (SN12C renal) 3.54 µM | GI50 (TK-10 renal) 5.84 µM | GI50 (SW-620 colon) 3.13 µM | GI50 (OVCAR-4 ovarian) 3.33 µM | GI50 (A498 renal) 2.08 µM | GI50 (HCT-116 colon) 2.93 µM | GI50 (NCI/ADR-RES ovarian) 3.23 µM | GI50 (U251 CNS) 3.66 µM | GI50 (M14 melanoma) 5.19 µM | GI50 (SK-MEL-28 melanoma) 5.17 µM | GI50 (OVCAR-5 ovarian) 8.9 µM | GI50 (NCI-H460 lung) 3.02 µM | GI50 (CAKI-1 renal) 3.6 µM | GI50 (HOP-62 NSCLC) 4.73 µM | GI50 (PC-3 prostate) 2.42 µM | GI50 (SNB-19 CNS) 4.84 µM | GI50 (SK-MEL-2 melanoma) 2.89 µM
63.3 µM: TGI (SNB-19 CNS)
61.9 µM: TGI (CAKI-1 renal)
8.89 µM: TGI (MALME-3M melanoma)
9.86 µM: TGI (NCI-H522 lung)
56 µM: TGI (TK-10 renal)
23.8 µM: TGI (NCI-H23 lung)
68.8 µM: TGI (SNB-75 CNS)
7.15 µM: TGI (SK-MEL-2 melanoma)
21.1 µM: TGI (A549 NSCLC)
5.74 µM: TGI (HOP-92 NSCLC)
7.71 µM: TGI (A498 renal)
5.76 µM: TGI (HL-60(TB) leukemia)
39.2 µM: TGI (HOP-62 NSCLC)
54.4 µM: TGI (UO-31 renal)
16.5 µM: TGI (LOX IMVI melanoma)
47.3 µM: TGI (SK-OV-3 ovarian)
12.6 µM: TGI (MDA-MB-231 breast)
20.1 µM: TGI (RXF 393 renal)
96.3 µM: TGI (786-0 renal)
10.2 µM: TGI (NCI-H460 lung)
9.79 µM: TGI (MOLT-4 leukemia)
10.1 µM: TGI (KM12 colon)
